Reference: US20220265629A1, “TREATMENT OF SYSTOLIC DYSFUNCTION AND HEART FAILURE WITH REDUCED EJECTION FRACTION WITH THE COMPOUND (R)-4-(1-((3-(DIFLUOROMETHYL)-1-METHYL-1H-PYRAZOL-4-YL)SULFONYL)-1-FLUOROETHYL)-N-(ISOXAZOL-3-YL)PIPERIDINE-1-CARBOXAMIDE” (MyoKardia, Inc., priority 2019, published 2022)
Marks after values point to notes of the source that are not given here.

Test system: patients with stable HFrEF
Assay: HFrEF study Part 2 (MAD Cohorts A-D): TTE pharmacodynamics by plasma concentration group
Type: in vivo, human
Conditions: for A-wave duration, mean change from baseline (placebo-corrected) / A-wave peak, mean change from baseline (placebo-corrected) / DBP (supine), mean change from baseline (placebo-corrected) / E-wave peak, mean change from baseline (placebo-corrected) / E/A ratio, mean change from baseline (placebo-corrected) / E/e′ (lateral), mean change from baseline (placebo-corrected) / Heart rate (supine), mean change from baseline (placebo-corrected) / IVRT, mean change from baseline (placebo-corrected) / LVEDD, mean change from baseline (placebo-corrected) / LVEDVi, mean change from baseline (placebo-corrected) / LVEF, mean change from baseline (placebo-corrected) / LVESD, mean change from baseline (placebo-corrected) / LVESVi, mean change from baseline (placebo-corrected) / LVFS, mean change from baseline (placebo-corrected) / LVGCS, mean change from baseline (placebo-corrected) / LVGLS, mean change from baseline (placebo-corrected) / LVSV, mean change from baseline (placebo-corrected) / SBP (supine), mean change from baseline (placebo-corrected) / SET, mean change from baseline (placebo-corrected) / Tei index, mean change from baseline (placebo-corrected) / e′ (lateral), mean change from baseline (placebo-corrected) / s′ (lateral), mean change from baseline (placebo-corrected): LS mean difference vs placebo
Protocol: PD assessment was done by transthoracic echocardiography as described in Example 1 above. TTE evaluations of LVSV (derived from LVOT-VTI), LVEF, LVFS, SET, and other parameters were PD assessments at predetermined time points. The patients were on bed rest for 10 minutes before the TTEs were obtained. In Part 2 (MAD), TTEs were usually obtained before the morning close and/or at 7 hours postclose (i.e., close to the anticipated peak effect based on the PK profile from the healthy volunteer studies).
The pharmacodynamic effects of Compound I on echocardiographic markers of cardiac structure and function were analyzed by Compound I plasma concentration groups: <2000 ng/mL (lower concentration group), 2000-3500 ng/mL (medium concentration group) and ≥3500 ng/mL (higher concentration group) (Table 16) and with PK-PD scatterplots (FIGS. 9A-9C). The medium concentration group corresponds to steady-state plasma concentrations achieved with 50 mg BID (Table 17). A total of 526 echocardiograms were performed from which the PK-PD analysis was derived.

[1] = MAD cohorts, plasma concentration group 2000-<3500 ng/mL (n = 26)
[2] = MAD cohorts, plasma concentration group <2000 ng/mL (n = 30)
[3] = MAD cohorts, plasma concentration group ≥3500 ng/mL (n = 13)
[4] = higher concentration group (≥3500 ng/mL)
[5] = medium concentration group (2000-3500 ng/mL)

For Cn1cc(S(=O)(=O)[C@@](C)(F)C2CCN(C(=O)Nc3ccon3)CC2)c(C(F)F)n1 [Compound I, (R)-4-(1-((3-(difluoromethyl)-1-methyl-1H-pyrazol-4-yl)sulfonyl)-1-fluoroethyl)-N-(isoxazol-3-yl)piperidine-1-carboxamide], the LVEF (MAD cohorts) was “non-significant increase”, the “A-wave duration, mean change from baseline (placebo-corrected)” value (“A-wave duration, mean change” for short) [1] was 5.9 ms and the “A-wave peak, mean change from baseline (placebo-corrected)” value (“A-wave peak, mean change from baseline” for short) [1] was 6.1** cm/s. The “DBP (supine), mean change from baseline (placebo-corrected)” value (shortened to “DBP (supine), mean change from baseline”) [1] was −0.2 mmHg, the “E-wave peak, mean change from baseline (placebo-corrected)” value (“E-wave peak, mean change from baseline” for short) [1] was -2.1 cm/s and the “E/A ratio, mean change from baseline (placebo-corrected)” value (shortened to “E/A ratio, mean change from baseline”) [1] was −0.1**. For the same compound, the “E/e′ (lateral), mean change from baseline (placebo-corrected)” value (from here on “E/e′ (lateral), mean change”) [1] was −0.7, the “Heart rate (supine), mean change from baseline (placebo-corrected)” value (“Heart rate (supine), mean change” below) [1] was −2.0 bpm and the “IVRT, mean change from baseline (placebo-corrected)” value (“IVRT, mean change from baseline” below) [1] was 10.5 ms. The “LVEDD, mean change from baseline (placebo-corrected)” value (shortened to “LVEDD, mean change from baseline”) [1] was −0.9** mm, the “LVEDVi, mean change from baseline (placebo-corrected)” value (from here on “LVEDVi, mean change from baseline”) [1] was −1.1 mL/m^2 and the “LVEF, mean change from baseline (placebo-corrected)” value (from here on “LVEF, mean change from baseline”) [1] was 1.1%. For the same compound, the “LVESD, mean change from baseline (placebo-corrected)” value (“LVESD, mean change from baseline” below) [1] was −1.3** mm, the “LVESVi, mean change from baseline (placebo-corrected)” value (“LVESVi, mean change from baseline” below) [1] was −1.3 mL/m^2 and the “LVFS, mean change from baseline (placebo-corrected)” value (“LVFS, mean change from baseline” for short) [1] was 0.8%. For the same compound, the “LVGCS, mean change from baseline (placebo-corrected)” value (“LVGCS, mean change from baseline” below) [1] was −2.1** %, the “LVGLS, mean change from baseline (placebo-corrected)” value (“LVGLS, mean change from baseline” below) [1] was −0.9* % and the “LVSV, mean change from baseline (placebo-corrected)” value (“LVSV, mean change from baseline” below) [1] was 7.8** mL. For the same compound, the “SBP (supine), mean change from baseline (placebo-corrected)” value (shortened to “SBP (supine), mean change from baseline”) [1] was −0.8 mmHg, the “SET, mean change from baseline (placebo-corrected)” value (“SET, mean change from baseline” for short) [1] was 36** ms and the “Tei index, mean change from baseline (placebo-corrected)” value (shortened to “Tei index, mean change from baseline”) [1] was −0.08**. The “e′ (lateral), mean change from baseline (placebo-corrected)” value [1] was 0.1, the “s′ (lateral), mean change from baseline (placebo-corrected)” value (from here on “s′ (lateral), mean change from baseline”) [1] was 0.6** and the “A-wave duration, mean change” value [2] was 6.0 ms. For the same compound, the “A-wave peak, mean change from baseline” value [2] was 4.1* cm/s, the “DBP (supine), mean change from baseline” value [2] was −0.9 mmHg and the “E-wave peak, mean change from baseline” value [2] was -3.8 cm/s. For the same compound, the “E/A ratio, mean change from baseline” value [2] was −0.1**, the “E/e′ (lateral), mean change” value [2] was −0.8 and the “Heart rate (supine), mean change” value [2] was 0.0 bpm. For the same compound, the “IVRT, mean change from baseline” value [2] was 2.7 ms, the “LVEDD, mean change from baseline” value [2] was −0.5 mm and the “LVEDVi, mean change from baseline” value [2] was −1.1 mL/m^2. For the same compound, the “LVEF, mean change from baseline” value [2] was −0.3%, the “LVESD, mean change from baseline” value [2] was −0.8 mm and the “LVESVi, mean change from baseline” value [2] was −0.9 mL/m^2. The “LVFS, mean change from baseline” value [2] was 0.5%, the “LVGCS, mean change from baseline” value [2] was −0.4% and the “LVGLS, mean change from baseline” value [2] was −0.3%. The “LVSV, mean change from baseline” value [2] was 3.1 mL, the “SBP (supine), mean change from baseline” value [2] was −1.5 mmHg and the “SET, mean change from baseline” value [2] was 15** ms. The “Tei index, mean change from baseline” value [2] was −0.05, the “e′ (lateral), mean change from baseline (placebo-corrected)” value [2] was −0.2 and the “s′ (lateral), mean change from baseline” value [2] was 0.2. For the same compound, the “A-wave duration, mean change” value [3] was 11.9** msec, the “A-wave peak, mean change from baseline” value [3] was 4.3 cm/s and the “DBP (supine), mean change from baseline” value [3] was −1.4 mmHg. The “E-wave peak, mean change from baseline” value [3] was −10** cm/s, the “E/A ratio, mean change from baseline” value [3] was −0.2** and the “E/e′ (lateral), mean change” value [3] was 0.3. The “Heart rate (supine), mean change” value [3] was −1.1 bpm, the “IVRT, mean change from baseline” value [3] was 27.8** msec and the “LVEDD, mean change from baseline” value [3] was −1.8** mm. For the same compound, the “LVEDVi, mean change from baseline” value [3] was −5.2* mL/m^2, the “LVEF, mean change from baseline” value [3] was 2.3% and the “LVESD, mean change from baseline” value [3] was −1.8** mm. The “LVESVi, mean change from baseline” value [3] was −4.6** mL/m^2, the “LVFS, mean change from baseline” value [3] was 0.5% and the “LVGCS, mean change from baseline” value [3] was −3.3** %. For the same compound, the “LVGLS, mean change from baseline” value [3] was −1.0* %, the “LVSV, mean change from baseline” value [3] was 5.7* mL and the “SBP (supine), mean change from baseline” value [3] was −5.2* mmHg. The “SET, mean change from baseline” value [3] was 48** ms, the “Tei index, mean change from baseline” value [3] was −0.02 and the “e′ (lateral), mean change from baseline (placebo-corrected)” value [3] was −1.0**. For the same compound, the “s′ (lateral), mean change from baseline” value [3] was 0.3, the SET increase (SAD and MAD cohorts) was less than 50 ms and the “increase in SV (forward flow)” value (SAD and MAD cohorts, exposure-related) was 8 to 9 mL. The “Myocardial performance (Tei index) improved” value (SAD and MAD cohorts, concentrations ≥2000 ng/mL) was “approximately 10%”, the “LV longitudinal as well as circumferential strain, mean placebo-corrected decrease” value [4] was −3.3% and the “LVESD, mean placebo-corrected decrease” value [4] was −1.8 mm. The “SET, mean placebo-corrected increase” value [4] was 48 ms, the “peak E wave, decrease” value [4] was -10 cm/s and the “stroke volume, mean placebo-corrected increase” value [4] was 5.7 mL. For the same compound, the “LV longitudinal as well as circumferential strain, mean placebo-corrected decrease” value [5] was −2.1%, the “LVESD, mean placebo-corrected decrease” value [5] was −1.3 mm and the “SET, mean placebo-corrected increase” value [5] was 36 ms. The “stroke volume, mean placebo-corrected increase” value [5] was 7.8 mL and the “filling pressures (E/e′)” value (medium or higher concentration group) was “No change”.
